# Molecular target: T1, ZADH2 (Homo sapiens, UniProt Q8N4Q0)
# T1 construct: endogenous in cells; host or cells: HEK293T
# T1 sequence (Q8N4Q0 1-377): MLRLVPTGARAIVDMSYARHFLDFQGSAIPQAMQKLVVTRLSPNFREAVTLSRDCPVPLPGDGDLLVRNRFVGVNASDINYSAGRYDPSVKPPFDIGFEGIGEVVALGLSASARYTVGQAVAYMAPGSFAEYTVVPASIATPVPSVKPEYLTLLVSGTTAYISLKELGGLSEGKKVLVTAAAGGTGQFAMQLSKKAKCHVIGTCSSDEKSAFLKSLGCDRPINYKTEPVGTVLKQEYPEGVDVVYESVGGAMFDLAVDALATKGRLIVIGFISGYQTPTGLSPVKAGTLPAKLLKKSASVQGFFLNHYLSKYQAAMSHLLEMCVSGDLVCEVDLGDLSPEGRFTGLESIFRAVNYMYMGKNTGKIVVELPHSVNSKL
# Assay: MS-based (SILAC) competition of FFF probe 8 labeling of ZADH2 in HEK293T cells
# Format: binding
# Settings: competition with FFF probe 8 (20 μM)
# Method: For gel-based experiments, cells were grown in 6-well plates to ˜90% confluence at the time of treatment. Cells were carefully washed with Dulbecco's phosphate buffered saline (DPBS) and replenished with fresh serum-free media containing indicated FFF probe, and, if applicable, competitors or DMSO vehicle (1 mL). Following incubation at 37° C. for 30 min, cells were directly exposed to 365 nm light for 10 min. For no UV experiments, cells were incubated at 4° C. for 10 min under ambient light. For MS-based experiments, cell labeling was performed in a similar manner as described above. Modifications to this protocol included using isotopically ‘light’ and ‘heavy’ SILAC cells that were grown to near complete confluence prior to treatment in 10 cm plates. In probe-versus-control probe and probe-versus-probe experiments, isotopically light cells were treated with indicated fragment probe, while the heavy cells were treated with control probe (1), or additional FFF probe to be compared, at indicated concentrations. […]
# Cells pellets were lysed in cold DPBS (100-500 µL) using a Branson Sonifier probe sonicator (10 pulses, 30% duty cycle, output setting=4). […] Protein concentration was determined using the DC Protein Assay (Bio-Rad) and absorbance read using a Tecan, Infinite F500 plate reader following manufacturer's instructions. […]
smiles,measurement,value
"COc1ccccc1N1CCN(C(=O)Cc2ccccc2)CC1 [Compound 22, 1-(4-(2-Methoxyphenyl)piperazin-1-yl)-2-phenylethan-1-one]",cross-reactivity with ZADH2,did not cross-react

# Reference: patent US11535597B2, “Photoreactive ligands and uses thereof” (The Scripps Research Institute, priority 2017, dated 2022)
